These results are taken from patent publication US7901692B2, “Nontypeable Haemophilus influenzae virulence factors” (Nationalwide Children's Hospital, Inc., priority 2003, dated 2011).

For one test, the system named is NTHi sapF::mTn5 mutants. The experiment in a line: Broth minimal inhibitory concentration (MIC) analysis for protamine. Type of test: cell-based, nontypeable Haemophilus influenzae. An excerpt: To ensure no secondary mutation in the original sapF::mTn5 mutant contributed to the various phenotypes of this mutant, the parent strain 86-028NP was transformed with the 6 kb EcoRV fragment containing the sapF::mTn5 allele from the pBlueA1 plasmid. The wild type sapF gene was replaced in this strain by homologous recombination with the sapF::mTn5 allele. One Km resistant clone was confirmed to harbor a miniTn5 interrupted sapF gene by PCR and Southern blot analysis. This clone was further characterized together with the sapF::mTn5 strain and designated RcsapF::mTn5.
(§1) Since the sap mutants of S. typhimurium and E. chrysanthemi were reported to be hypersensitive to certain antimicrobial peptides, sensitivity to several commercial available cationic peptides against the NTHi parent and the sapF mutant strains was analyzed. […] Broth minimal inhibitory concentration (MIC) analyses for protamine determined that the MIC of protamine for the sapF::mTn5 mutants was lower than that for the parent strain (0.2 mg/ml versus 0.4 mg/ml). […] Thus, the sapF gene product is not required for growth in enriched media, and the lack of growth of the sapF mutants at the lower protamine concentrations in sBHI broth was not due to a growth defect. Therefore, the sapF mutation may be responsible for the phenotype of increased sensitivity to protamine, and the in vivo attenuation property of the sapF mutant.

The test system of test [1] is NTHi parent strain 86-028NP. Described as above. The class given is cell-based, nontypeable Haemophilus influenzae. Conditions: aerobic growth in sBHI broth. As to the method:
as §1

As for protamine, the “sensitivity of mutant to the action of protamine” value in the test on NTHi sapF::mTn5 mutants (sapF::mTn5 mutant, more sensitive (relative to parent strain)) is given as 3 fold. For the same substance, the MIC of protamine was determined as 200 µg/mL in the test with NTHi sapF::mTn5 mutants (sapF::mTn5 mutants, aerobic growth in sBHI broth) and 400 µg/mL in test [1].
